Read-outs that look alike come from different tables or passages of the source.
Assays:
human androgen receptor [1] = molecular target: T1, human androgen receptor (Homo sapiens, UniProt P10275); assay: Test Example 1: agonist effect, androgen receptor reporter gene assay in 11A11B2 cells; assay type: cell-based; conditions: compound concentration showing transcription activity of 5% (0.1 nmol/L DHT = 100%, assay medium alone = 0%), 48 hours
T1 construct: expressed in transfected cells; host or cells: HeLa cells (clone 11A11B2), stably co-transfected with MMTV-Luc-Hyg reporter
T1 sequence (P10275 1-920): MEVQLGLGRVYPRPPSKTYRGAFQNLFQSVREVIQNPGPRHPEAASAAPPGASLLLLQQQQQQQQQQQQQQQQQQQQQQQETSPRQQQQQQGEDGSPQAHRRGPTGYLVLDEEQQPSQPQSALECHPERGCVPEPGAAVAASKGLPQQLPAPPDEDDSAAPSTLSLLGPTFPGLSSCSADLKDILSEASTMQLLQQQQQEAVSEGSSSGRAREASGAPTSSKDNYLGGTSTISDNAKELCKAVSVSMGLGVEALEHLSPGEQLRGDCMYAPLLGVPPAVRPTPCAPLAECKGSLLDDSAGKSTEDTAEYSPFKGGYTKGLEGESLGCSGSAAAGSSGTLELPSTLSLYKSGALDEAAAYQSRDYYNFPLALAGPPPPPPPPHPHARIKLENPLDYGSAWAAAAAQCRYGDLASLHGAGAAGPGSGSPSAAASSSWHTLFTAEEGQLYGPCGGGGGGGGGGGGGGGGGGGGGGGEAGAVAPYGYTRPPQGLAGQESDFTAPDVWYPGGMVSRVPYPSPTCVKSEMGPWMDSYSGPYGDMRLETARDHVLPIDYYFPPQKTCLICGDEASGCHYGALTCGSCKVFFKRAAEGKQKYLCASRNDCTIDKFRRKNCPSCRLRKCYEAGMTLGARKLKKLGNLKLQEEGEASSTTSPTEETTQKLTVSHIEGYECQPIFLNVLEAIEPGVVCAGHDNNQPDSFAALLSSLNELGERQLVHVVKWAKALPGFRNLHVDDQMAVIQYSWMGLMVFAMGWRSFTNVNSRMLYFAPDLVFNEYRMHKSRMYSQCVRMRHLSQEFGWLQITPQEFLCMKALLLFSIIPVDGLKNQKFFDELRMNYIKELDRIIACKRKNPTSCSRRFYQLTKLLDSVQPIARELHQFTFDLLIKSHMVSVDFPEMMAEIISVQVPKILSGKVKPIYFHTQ
Experimental: (§1) HeLa cells (purchased from Dai-Nippon Seiyaku K. K.) were cultured overnight in Dulbecco's Modified Eagle Medium containing no phenol red, but containing 3% charcoal-treated fetal bovine serum (hereafter referred to as DCC-FBS) (this medium is hereafter referred to as phenol-red-free DMEM). An MMTV-Luc-Hyg vector (reporter plasmid with […], containing an androgen response element and a hygromycin resistance gene: a vector obtained by substituting the chloramphenicol acetyl transferease gene of a GM-CAT vector (A.T.C.C No. 67282) purchased from the A.T.C.C. for the firefly luciferase gene, and inserting a hygromycin resistance gene), and pSG5-hAR-neo (human androgen receptor expression vector: a vector having an androgen receptor gene under the control of the SV40 promoter, and having a neomycin resistance gene inserted as a drug resistance gene) were transfected into the HeLa cells using an FuGENE™ 6 Transfection Reagent (obtained from Roche).
(§2) The clone cells thus obtained (11A11B2 cells) were maintained and propagated using DMEM containing 400 μg/mL neomycin, 200 μg/mL hygromycin and 10% FBS, and were propagated using phenol-red-free DMEM containing 10% DCC-FBS three to four days prior to the performance of an androgen receptor reporter gene assay.
The 11A11B2 cells were inoculated in a white clear-bottomed 96-well microplate (COSTAR) so that the cell concentration was 1.0×10^4/well, and were cultured overnight using phenol-red-free DMEM containing 3% DCC-FBS (hereafter referred to as the assay medium). Samples of the assay medium containing the compounds of the examples and compounds of the comparative examples were added so that the final concentrations of the compounds of the examples and compounds of the comparative examples were 1, 10, 100, 1,000 and 10,000 nmol/L (however, in the case of the compounds of Examples 1 and 2, the compounds were added so that the final concentrations were 1, 10, 100, 1,000, 10,000 and 100,000 nmol/L), and the cells were cultured for 48 hours, after which the transcription activity value was measured. The transcription activity was measured using a Bright-Glo™ Luciferase Assay System (Promega).
(§3) The transcription activity rates of the compounds of the examples were calculated from the transcription activity measured by the abovementioned method, with the transcription activity value obtained at 0.1 nmol/L DHT taken as 100%, and the transcription activity value in the case of the assay medium alone taken as 0%. The compound concentration showing a transcription activity of 5% (EC5 value) was calculated from a linear equation for two points on either side of 5%.

human androgen receptor [2] = molecular target: T1, human androgen receptor; assay: Test Example 2: antagonist effect, androgen receptor reporter gene assay in 11A11B2 cells with 0.1 nmol/L DHT; assay type: cell-based
Experimental: as §1, §2
The 11A11B2 cells were inoculated in a white clear-bottomed 96-well microplate (COSTAR) so that the cell concentration was 1.0×10^4/well, and were cultured overnight using phenol-red-free DMEM containing 3% DCC-FBS (hereafter referred to as the assay medium). The assay medium containing DHT was added so that the final concentration of DHT was 0.1 nmol/L, and samples of the assay medium containing the compounds of the examples or compounds of the comparative examples were added so that the final concentrations of the compounds of the examples or compounds of the comparative examples were 1, 10, 100, 1,000 and 10,000 nmol/L, respectively. After culturing for 48 hours, the transcription activity values were measured. The transcription activity was measured using a Bright-Glo™ Luciferase Assay System (Promega).
as §3, with “0%.” for “0%. The compound concentration showing a transcription activity of 5% (EC5 value) was calculated from a linear equation for two points on either side of 5%.”
Accordingly, the value obtained by subtracting the transcription activity rate of Test Example 1 (Investigation of Agonist Activity) from the transcription activity rate of Test Example 2 (Investigation of Antagonist Activity) was used to calculate the compound concentration at which a transcription activity of 50% was shown (IC50 value). The IC50 value was calculated from a linear equation for two points on either side of 50%.

[3] = prostate cancer patients treated with flutamide; cited from earlier work
androgen receptor = androgen receptor (Homo sapiens, UniProt P10275); conditions: at a concentration of 10 μmol/L; cited from earlier work
[4] = reports; cited from earlier work
castrated rats = conditions: continuously administered to castrated rats for two weeks; cited from earlier work
[5] = concentration giving 50% transcription activity after subtracting the Test Example 1 agonist rate, 0.1 nmol/L DHT, 11A11B2 cells, 48 hours, read-out: IC50

SMILES | EC5 (human androgen receptor [1]) | IC50 (human androgen receptor [2]; [5]) | also measured
CNS(=O)(=O)CCCCN1C(=S)N(c2ccc(C#N)c(C(F)(F)F)c2)C(=O)C1(C)C [Example 16, 4-[3′-(4″-N-methylaminosulfonylbutyl)-4′,4′-dimethyl-5′-oxo-2′-thioxo-1′-imidazolidinyl]-2-trifluoromethylbenzonitrile] | >10000 nM | 700 nM | 
CC(C)(O)C(=O)Nc1ccc([N+](=O)[O-])c(C(F)(F)F)c1 [Comparative Example 4, hydroxyflutamide] | 10 nM |  | concentration in the blood [3]: several; androgen receptor transcription activity (androgen receptor): increase in androgen receptor transcription activity
CC(C)C(=O)Nc1ccc([N+](=O)[O-])c(C(F)(F)F)c1 [flutamide] |  |  | side effects [4]: liver toxicity
CC(O)(CS(=O)(=O)c1ccc(F)cc1)C(=O)Nc1ccc(C#N)c(C(F)(F)F)c1 (stereo not drawn) [Comparative Example 3, bicalutamide] |  |  | side effects [4]: liver toxicity
CC1(C)C(=O)N(c2ccc(C#N)c(C(F)(F)F)c2)C(=S)N1CCCCCS(N)(=O)=O [Example 7, 4-[3′-(5″-aminosulfonylpentyl)-4′,4′-dimethyl-5′-oxo-2′-thioxo-1′-imidazolidinyl]-2-trifluoromethylbenzonitrile] | >10000 nM | 900 nM | 
CC1(C)C(=O)N(c2ccc(C#N)c(C(F)(F)F)c2)C(=S)N1CCCS(N)(=O)=O [Example 1, 4-[3′-(3″-aminosulfonylpropyl)-4′,4′-dimethyl-5′-oxo-2′-thioxo-1′-imidazolidinyl]-2-trifluoromethylbenzonitrile] | 20000 nM |  | IC50 (human androgen receptor [2]): 200 nM
CC(=O)O[C@]1(C(C)=O)CC[C@H]2[C@@H]3C=C(Cl)C4=CC(=O)[C@@H]5C[C@@H]5[C@]4(C)[C@H]3CC[C@@]21C [cyproterone acetate] |  |  | weight of the prostate gland (castrated rats): increase in the weight of the prostate gland
CC1(C)C(=O)N(c2ccc(C#N)c(C(F)(F)F)c2)C(=S)N1CCCCCCS(N)(=O)=O [Example 3, 4-[3′-(6″-aminosulfonylhexyl)-4′,4′-dimethyl-5′-oxo-2′-thioxo-1′-imidazolidinyl]-2-trifluoromethylbenzonitrile] | 3000 nM | 200 nM | 
CN(C)S(=O)(=O)CCCCN1C(=S)N(c2ccc(C#N)c(C(F)(F)F)c2)C(=O)C1(C)C [Example 8, 4-[3′-(4″-N,N-dimethylaminosulfonylbutyl)-4′,4′-dimethyl-5′-oxo-2′-thioxo-1′-imidazolidinyl]-2-trifluoromethylbenzonitrile] | 2000 nM |  | IC50 (human androgen receptor [2]): 100 nM
CC(=O)NCCN1C(=S)N(c2ccc(C#N)c(C(F)(F)F)c2)C(=O)C1(C)C [Comparative Example 2, 4-[3′-(2″-N-acetylaminoethyl)-4′,4′-dimethyl-5′-oxo-2′-thioxo-1′-imidazolidinyl]-2-trifluoromethylbenzonitrile, reference compound] | 3000 nM | 800 nM | 
CC1(C)C(=O)N(c2ccc(C#N)c(C(F)(F)F)c2)C(=S)N1CCCCS(N)(=O)=O [Example 2, 4-[3′-(4″-aminosulfonylbutyl)-4′,4′-dimethyl-5′-oxo-2′-thioxo-1′-imidazolidinyl]-2-trifluoromethylbenzonitrile] | >100000 nM | 600 nM | 
CC(=O)O[C@]1(C(C)=O)CC[C@H]2[C@@H]3C=C(Cl)C4=CC(=O)CC[C@]4(C)[C@H]3CC[C@@]21C [chlormadinone acetate] |  |  | weight of the prostate gland (castrated rats): increase in the weight of the prostate gland
CN(C)S(=O)(=O)CCCCCN1C(=S)N(c2ccc(C#N)c(C(F)(F)F)c2)C(=O)C1(C)C [Example 10, 4-[3′-(5″-N,N-dimethylaminosulfonylpentyl)-4′,4′-dimethyl-5′-oxo-2′-thioxo-1′-imidazolidinyl]-2-trifluoromethylbenzonitrile] | 2000 nM | 200 nM | 
CC1(C)C(=O)N(c2ccc(C#N)c(C(F)(F)F)c2)C(=S)N1CCS(N)(=O)=O [Example 18, 4-[3′-(2″-aminosulfonylethyl)-4′,4′-dimethyl-5′-oxo-2′-thioxo-1′-imidazolidinyl]-2-trifluoromethylbenzonitrile] | 7000 nM |  | IC50 (human androgen receptor [2]): 600 nM
CN1C(=S)N(c2ccc(C#N)c(C(F)(F)F)c2)C(=O)C1(C)C [Comparative Example 1, 4-(5-oxo-2-thioxo-3,4,4-trimethyl-1-imidazolidinyl)-2-trifluoromethylbenzonitrile, reference compound] | 0.08 nM |  | IC50 (human androgen receptor [2]): 1 nM

Reference: patent US7271188B2, “Imidazolidine derivatives” (Chugai Seikayu Kabushiki Kaisha, priority 2003, dated 2007)
